What all share (type): functional, organism-based
Assay [1] concerns Plasmodium falciparum. The assay is described as follows: (§1) Antimalarial activity as reduced parasitaemia after 72 hrs against chloroquine-resistant Plasmodium falciparum K1 infected human O+ erythrocytes by DNA stain without pepstatin. Conditions: K1, 72 h.
Assay [2] has as its system Plasmodium falciparum. The assay is described as §1. The following applies: K1, 72 h. This is another data set of the same source.
The test system of assay [3] is Plasmodium falciparum. The experiment in a line: Antimalarial activity as reduced parasitaemia after 72 hrs against chloroquine-sensitive Plasmodium falciparum 3D7 infected human O+ erythrocytes by DNA stain without pepstatin. The following applies: 3D7, 72 h.
In assay [4] the test system is Plasmodium falciparum. The assay is described as follows: Antimalarial activity as reduced parasitaemia after 72 hrs against chloroquine-sensitive Plasmodium falciparum 3D7 infected human O+ erythrocytes by DNA stain with pepstatin. Conditions: 3D7, 72 h.

In the case of `CCCC/C(=N\NC(N)=S)c1ccc(Cl)c(Cl)c1`, the EC50 in assay [1], in assay [2], in assay [3] and in assay [4] was > 30 µM in each case.

Turning to `Cc1ccc(/C(=N/NC(N)=S)c2ccccc2)cc1`, the EC50 in assay [1], in assay [2], in assay [3] and in assay [4] was > 30 µM throughout.

For `CCCCN1CNc2c(NCc3ccc(C)cc3)nc(C#N)nc21`, the EC50 in assay [1], in assay [2], in assay [3] and in assay [4] was > 30 µM throughout.

On to `CCCCN1CNc2c(NCc3ccc(OC)cc3)nc(C#N)nc21`, for which the EC50 in assay [1], in assay [2], in assay [3] and in assay [4] was > 30 µM each time.

Turning to `Cc1ccc(CNc2nc(C#N)nc3c2NCN3CCCO)cc1`, the EC50 in assay [1], in assay [2], in assay [3] and in assay [4] was > 30 µM in each case.

`CCCCN1CNc2c(NCc3ccc(F)cc3)nc(C#N)nc21`: the EC50 in assay [1], in assay [2], in assay [3] and in assay [4] was > 30 µM throughout.

As to `N#Cc1nc(NCc2ccccc2)c2c(n1)N(C1CCCCO1)CN2` (stereo not given), the EC50 in assay [1], in assay [2], in assay [3] and in assay [4] was > 30 µM each time.

For the molecule `CC(O)CN1CNc2c(NCc3ccc(Cl)c(Cl)c3)nc(C#N)nc21` (stereo not given), the EC50 (commonly the concentration at which the effect is half-maximal) was > 30 µM in assay [1], > 30 µM in assay [2], > 30 µM in assay [3] and 30 µM in assay [4].

Take `N#Cc1nc(NCc2ccc(Cl)c(Cl)c2)c2c(n1)N(CC(O)CO)CN2` (stereo not given): the EC50 in assay [1], in assay [2], in assay [3] and in assay [4] was > 30 µM each time.

Consider `N#Cc1nc(NCc2ccc(F)cc2)c2c(n1)N(CCCCO)CN2`, for which the EC50 in assay [1], in assay [2], in assay [3] and in assay [4] was > 30 µM in each case.

Regarding `N#Cc1nc(NCc2ccc(F)cc2)c2c(n1)N(Cc1ccccc1)CN2`, the EC50 in assay [1], in assay [2], in assay [3] and in assay [4] was > 30 µM in each case.

On to `N#Cc1nc(NCc2ccc(Cl)c(Cl)c2)c2c(n1)N(Cc1ccccc1)CN2`, for which the concentration for a half-maximal effect (EC50) in assay [1] was > 30 µM; in assay [2], 30 µM; in assay [3], > 30 µM; in assay [4], 30 µM.

As to `COc1ccc(CN2CNc3c(NCc4ccccc4)nc(C#N)nc32)cc1`, the EC50 in assay [1], in assay [2], in assay [3] and in assay [4] was > 30 µM throughout.

For `N#Cc1nc(NCc2ccc(Cl)cc2)c2c(n1)N(CCCCO)CN2`, the EC50 in assay [1], in assay [2], in assay [3] and in assay [4] was > 30 µM each time.

With `COCCCN1CNc2c(NCc3ccc(Cl)c(Cl)c3)nc(C#N)nc21`, the EC50 is > 30 µM in assay [1], > 30 µM in assay [2], > 30 µM in assay [3] and 30 µM in assay [4].

Consider `COc1ccc(CN2CNc3c(NCc4ccc(Cl)cc4)nc(C#N)nc32)cc1`, for which the EC50 in assay [1] is > 30 µM; in assay [2] it was > 30 µM; in assay [3] it was > 30 µM; in assay [4], 30 µM.

On to `N#Cc1nc(NCc2ccc(Cl)cc2)c2c(n1)N(Cc1cccc(C(F)(F)F)c1)CN2`, for which the EC50 is > 30 µM in assay [1], 30 µM in assay [2], > 30 µM in assay [3] and 30 µM in assay [4].

Regarding `COC(CCN1CNc2c(NCc3ccc(Cl)c(Cl)c3)nc(C#N)nc21)OC`, the concentration giving a half-maximal response (EC50) in assay [1] is > 30 µM; in assay [2], > 30 µM; in assay [3], > 30 µM; in assay [4] it was 30 µM.

With `N#Cc1nc(NCc2ccc(Cl)c(Cl)c2)c2c(n1)N(CCCC(=O)O)CN2`, the EC50 in assay [1], in assay [2], in assay [3] and in assay [4] was > 30 µM in each case.

For `N#Cc1nc(NCc2cccc(-c3cc(Cl)cc(Cl)c3)c2)c2ncn(CCCO)c2n1`, the EC50 in assay [1], in assay [2], in assay [3] and in assay [4] was > 30 µM throughout.

As for `N#Cc1nc(NCc2cccc(-c3ccc(Cl)c(Cl)c3)c2)c2ncn(CCCO)c2n1`, the half-maximal effective concentration (EC50) in assay [1], in assay [2], in assay [3] and in assay [4] was > 30 µM in each case.

For `N#Cc1nc(NCc2ccc(Br)cc2)c2c(n1)N(CCCc1ccccc1)CN2`, the EC50 in assay [1], in assay [2], in assay [3] and in assay [4] was > 30 µM throughout.

In the case of `CCCCN1CNc2c(NCc3ccc(Cl)c(Cl)c3)nc(C#N)nc21`, the EC50 is > 30 µM in assay [1], > 30 µM in assay [2], > 30 µM in assay [3] and 30 µM in assay [4].

Consider `Cc1cccc(/C(=N/NC(N)=S)c2cccc(F)c2)c1`, for which the EC50 in assay [1], in assay [2], in assay [3] and in assay [4] was > 30 µM throughout.

For the molecule `N#Cc1nc(NCc2cccc(Cc3cccc(Cl)c3)c2)c2ncn(CCCO)c2n1`, the EC50 in assay [1], in assay [2], in assay [3] and in assay [4] was > 30 µM throughout.

In the case of `CN(C)c1cccc(-c2cccc(CNc3nc(C#N)nc4c3ncn4CCCO)c2)c1`, the EC50 in assay [1], in assay [2], in assay [3] and in assay [4] was > 30 µM each time.

In the case of `N#Cc1nc(NCc2ccc(-c3cccnc3)cc2)c2ncn(CCCO)c2n1`, the EC50 in assay [1], in assay [2], in assay [3] and in assay [4] was > 30 µM in each case.

Turning to `COC(=O)c1cccc(-c2cccc(CNc3nc(C#N)nc4c3ncn4CCCO)c2)c1`, the EC50 in assay [1], in assay [2], in assay [3] and in assay [4] was > 30 µM in each case.

Turning to `C=Cc1cccc(-c2cccc(CNc3nc(C#N)nc4c3ncn4CCCO)c2)c1`, the EC50 in assay [1], in assay [2], in assay [3] and in assay [4] was > 30 µM in each case.

For the molecule `N#Cc1nc(NCc2cccc(-c3ccc4ccccc4c3)c2)c2ncn(CCCO)c2n1`, the half-maximal effective concentration (EC50) in assay [1] was > 30 µM; in assay [2] it was > 30 µM; in assay [3], > 30 µM; in assay [4], 30 µM.

With `N#Cc1nc(NCc2cccc(-c3ccsc3)c2)c2ncn(CCCO)c2n1`, the EC50 in assay [1], in assay [2], in assay [3] and in assay [4] was > 30 µM throughout.

For the molecule `N#Cc1nc(NCc2cccc(-c3ccoc3)c2)c2ncn(CCCO)c2n1`, the concentration giving a half-maximal response (EC50) in assay [1], in assay [2], in assay [3] and in assay [4] was > 30 µM each time.

`CC(C)Oc1c(Br)cccc1-c1cccc(CNc2nc(C#N)nc3c2ncn3CCCO)c1`: the EC50 was > 30 µM in assay [1], > 30 µM in assay [2], 30 µM in assay [3] and 30 µM in assay [4].

Consider `COc1cc(OC)c(-c2cccc(CNc3nc(C#N)nc4c3ncn4CCCO)c2)cn1`, for which the EC50 in assay [1], in assay [2], in assay [3] and in assay [4] was > 30 µM throughout.

As for `COc1ccc(CNc2nc(C#N)nc3c2NCN3Cc2ccccc2)cc1`, the concentration giving a half-maximal response (EC50) in assay [1], in assay [2], in assay [3] and in assay [4] was > 30 µM in each case.

With `Cc1ccc(CNc2nc(C#N)nc3c2NCN3Cc2ccccc2)cc1`, the EC50 in assay [1], in assay [2], in assay [3] and in assay [4] was > 30 µM throughout.

Consider `N#Cc1nc(NCc2ccc(Cl)c(Cl)c2)c2c(n1)N(CCCO)CN2`, for which the EC50 in assay [1], in assay [2], in assay [3] and in assay [4] was > 30 µM throughout.

Regarding `COCC(CN1CNc2c(NCc3ccc(Cl)c(Cl)c3)nc(C#N)nc21)OC` (stereo not given), the EC50 in assay [1] was > 30 µM; in assay [2], > 30 µM; in assay [3], > 30 µM; in assay [4], 30 µM.

For `COc1ccc(-c2cccc(CNc3nc(C#N)nc4c3ncn4CCCO)c2)cc1`, the EC50 in assay [1], in assay [2], in assay [3] and in assay [4] was > 30 µM each time.

Consider `N#Cc1nc(NCc2cccc(-c3ccccc3)c2)c2ncn(CCCO)c2n1`, for which the EC50 in assay [1] is > 30 µM; in assay [2], > 30 µM; in assay [3] it was > 30 µM; in assay [4] it was 30 µM.

Turning to `N#Cc1nc(NCc2cccc(-c3cccnc3)c2)c2ncn(CCCO)c2n1`, the EC50 in assay [1], in assay [2], in assay [3] and in assay [4] was > 30 µM in each case.

Regarding `N#Cc1nc(NCc2cccc(-c3cccs3)c2)c2ncn(CCCO)c2n1`, the EC50 in assay [1], in assay [2], in assay [3] and in assay [4] was > 30 µM in each case.

On to `N#Cc1nc(NCc2cccc(-c3cc4ccccc4n3S(=O)(=O)c3ccccc3)c2)c2ncn(CCCO)c2n1`, for which the EC50 in assay [1] is > 30 µM; in assay [2], 30 µM; in assay [3], > 30 µM; in assay [4] it was 30 µM.

Turning to `N#Cc1nc(NCc2cccc(-c3cn(S(=O)(=O)c4ccccc4)c4ccccc34)c2)c2ncn(CCCO)c2n1`, the EC50 was > 30 µM in assay [1], 30 µM in assay [2], > 30 µM in assay [3] and 30 µM in assay [4].

For the molecule `N#Cc1nc(NCc2cccc(-c3ccc4cc[nH]c4c3)c2)c2ncn(CCCO)c2n1`, the EC50 in assay [1], in assay [2], in assay [3] and in assay [4] was > 30 µM in each case.

Source of the values: ChEMBL document CHEMBL1136945, “Antimalarial activity of thiosemicarbazones and purine derived nitriles” (Bioorg Med Chem Lett, 2009).
